Laboratory results published in patent US9339549B2, “Cationic graft-copolymer for drug delivery system” (priority 2013, dated 2016).
Values after ≈ are worked out from the molar mass of the structure shown.

Tests used:
[1] = test system: NIH/3T3 cells (mouse embryonic fibroblast cell line); assay: MTT test using NIH/3T3 cells; assay type: cell-based; details: incubation 50 hours at 37° C.
Method: Following procedure by MTT assay of DESCRIPTION OF EMBODIMENTS (4), after incubation of NIH/3T3 cells (mouse embryonic fibroblast cell line) for 50 hours at 37° C., cell viability was examined.
This test is a quantitative colorimetric method to determine cell proliferation. It utilizes the yellow tetrazolium salt [3-(4,5-Dimethylthiazol-2-yl)-2,5-diphenyltetrazolium-bromide] which is metabolized by mitochondrial succinic dehydrogenase activity of proliferating cells to yield a purple formazan reaction product.
The formazan is then solubilized by isopropyl alcohol, and the concentration determined by optical density at 570 nm and cell survival was calculated using the following formula: Cell survival (%)=((As−Ab)/(Ac−Ab))×100
Where, As=absorbance of the sample, Ac=absorbance of the control well […] and Ab=absorbance of the blank well.
1. Plate cells into 96-well tissue culture plates. Cells should be seeded at densities of 10,000 cells per well since they will reach optimal population densities within 24 to 48 hours.
2. Carry out the experiment by adding DDMC/PTX or PTX into appropriate well. The final volume of tissue culture medium in each well is 0.1 mL, and the medium may contain up to 10% Fetal Bovine Serum.
3. Use one vial of MTT solution for each 96-well plate assay.
4. Add 10 μL MTT solution to each well. […]
7. Read absorbance at 570 nm cell survival (%)=((As−Ab)/(Ac−Ab))×100

B16F10 melanoma cells = assay: Anti-tumor effects and survival in B16F10 tumor-bearing C57BL/6 mice; assay type: in vivo, mouse
Method: In vivo analysis for melanoma cells is investigated by C57BL/6 female mouse. Anti-tumor effects and survival rates were investigated in tumor-bearing mice.
To evaluate the anti-tumor effects of DMMC/PTX complex, tumor-bearing mice were prepared by inoculating B16F10 melanoma cells S.C onto the back of C57BL/6 female mouse (2.0×10^6 cells/mouse). At average 1885 mm^3 of tumor volume, 12 days after inoculation, paclitaxel (PTX), DMMC/PTX4 (particle size 50 nm), DMMC/PTX5 (particle size 290 nm), and […] were administrated by I.P. injection three times (at a dose of 10 mg PXL/kg, on days 12, 14, and 16). Tumor size was measured with a digital vernier caliper and the volume was calculated using the relation V (mm^3)=(a×b^2)/2 where a is the longer, and b is the shorter diameter. The survival periods also monitored at 2 day intervals.
The tumor growth inhibitory activities were evaluated using B16F10 in xeno-graft tumor-bearing C57BL/6 mice. The tumors rapidly grew in size when the mice were treated with saline and PTX. […] The mean tumor volumes increase rate in the PTX, […], DDMC/PTX4 and DDMC/PTX5 groups were 1.85, 1.84, 1.39 and 1.53, respectively.

[2] = I.P. three times, 10 mg PXL/kg on days 12, 14, 16, B16F10 tumor-bearing C57BL/6 mice

Q: `CC(=O)O[C@H]1C(=O)[C@@]2(C)[C@H]([C@H](OC(=O)c3ccccc3)[C@]3(O)C[C@H](OC(=O)[C@H](O)[C@@H](NC(=O)c4ccccc4)c4ccccc4)C(C)=C1C3(C)C)[C@]1(OC(C)=O)CO[C@@H]1C[C@@H]2O` [control 2, paclitaxel] was tested. Which “IC50 (μg/ml), MTT” value [1] did it give?
A: Its value is 4.5 µg/mL (≈ 5.27 µM).

Q: How did the IC50 ([1]; Mus musculus, NIH3T3, 50 h, read-out: IC50 (μg/ml), MTT) turn out when `CC(=O)O[C@H]1C(=O)[C@@]2(C)[C@H]([C@H](OC(=O)c3ccccc3)[C@]3(O)C[C@H](OC(=O)[C@H](O)[C@@H](NC(=O)c4ccccc4)c4ccccc4)C(C)=C1C3(C)C)[C@]1(OC(C)=O)CO[C@@H]1C[C@@H]2O` [control 1, paclitaxel] was run?
A: Its IC50 is 3 µg/mL (≈ 3.51 µM).

Q: How did the “mean tumor volumes increase rate” value (B16F10 melanoma cells; [2]) turn out when paclitaxel [PTX] was run?
A: Its value is 1.85.

Q: And the “median survival time (50%, MST)” value (B16F10 melanoma cells; [2])?
A: The value was 176 h.

Q: And the “T/C of median survival time” value (B16F10 melanoma cells; relative to serine (saline) group = 1.0)?
A: The value was 1.46.
